Assays:
[1] = biological target: T1, KRas-mediated phosphorylation of ERK in H358 cells (Homo sapiens, UniProt P01116, G12C); test: Inhibition of KRas-mediated phosphorylation of ERK (HTRF), H358 cells; assay type: cell-based; settings: HTRF pERK, 3 h incubation
T1 construct: pERK HTRF read-out

[2] = biological target: T2, KRas-mediated phosphorylation of ERK in A549 cells (Homo sapiens, UniProt P01116, G12S); test: Inhibition of KRas-mediated phosphorylation of ERK (HTRF), A549 cells; assay type: cell-based; settings: HTRF pERK, 3 h incubation
T2 construct: pERK HTRF read-out
T2 sequence (P01116 1-188 isoform P01116-2 G12S): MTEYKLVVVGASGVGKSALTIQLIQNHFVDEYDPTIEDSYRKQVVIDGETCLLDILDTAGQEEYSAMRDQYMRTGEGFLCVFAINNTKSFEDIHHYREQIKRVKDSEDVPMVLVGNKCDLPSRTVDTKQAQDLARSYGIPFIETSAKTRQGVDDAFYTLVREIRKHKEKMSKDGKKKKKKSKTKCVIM

[3] = biological target: T3, KRas-mediated phosphorylation of ERK in MKN1 cells (Homo sapiens, UniProt P01116); test: Inhibition of KRas-mediated phosphorylation of ERK (HTRF), MKN1 cells; assay type: cell-based; settings: MKN1 cells (KRas WT); HTRF pERK; 3 h incubation
T3 construct: pERK HTRF read-out
T3 sequence (P01116 1-188 isoform P01116-2): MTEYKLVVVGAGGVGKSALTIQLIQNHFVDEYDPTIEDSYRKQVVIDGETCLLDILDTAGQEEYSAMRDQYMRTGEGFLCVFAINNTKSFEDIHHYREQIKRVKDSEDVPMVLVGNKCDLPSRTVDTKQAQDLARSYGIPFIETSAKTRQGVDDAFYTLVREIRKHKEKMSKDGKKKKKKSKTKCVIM
Description: Inhibition of KRas Phosphorylation of ERK (HTRF) by Exemplary Compounds of Formula (Ia) or (Ib)
Cisbio HTRF Advanced pERK Assay Catalog #64AERPEH • Cells: MKN1, PSN1 • Procedure: • 1. Day 1: Seed 6,000 cells/well −25 μl/well in 384-well white solid bottom plate; RPM1_10% FBS. Incubate overnight at 37 °C/5% CO2. • 2.

KRas WT = biological target: T4, KRas WT (Homo sapiens, UniProt P01116); test: KRas binding assay, TR-FRET displacement of Cy5 labelled tracer; settings: 60-minute incubation at room temperature, 1% DMSO, pH 7.5
T4 construct: Biotinylated KRas (corresponding to amino acids 1-169, produced at Accelegan Inc.); biotin (biotinylated); purchased Accelegan Inc
T4 sequence (P01116 1-169 isoform P01116-2): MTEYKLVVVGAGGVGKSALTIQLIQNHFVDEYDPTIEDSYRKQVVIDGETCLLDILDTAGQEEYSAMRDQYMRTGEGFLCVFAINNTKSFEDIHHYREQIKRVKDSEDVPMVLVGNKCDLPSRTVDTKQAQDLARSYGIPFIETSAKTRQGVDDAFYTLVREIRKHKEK
How it was run: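 Compound competes with tracer for biotin-labelled KRas (amino acids 1-169) bound to terbium-streptavidin. Incubation runs 60 minutes at room temperature, final DMSO 1%. IC50 values derive from a 4-parameter fit.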

KRas G12S = biological target: T5, KRas G12S (Homo sapiens, UniProt P01116, G12S); test: as above; settings: 60-minute incubation at room temperature, 1% DMSO, pH 7.5
T5 construct: Biotinylated KRas (corresponding to amino acids 1-169, produced at Accelegan Inc.); biotin (biotinylated); purchased Accelegan Inc
T5 sequence (P01116 1-169 isoform P01116-2 G12S): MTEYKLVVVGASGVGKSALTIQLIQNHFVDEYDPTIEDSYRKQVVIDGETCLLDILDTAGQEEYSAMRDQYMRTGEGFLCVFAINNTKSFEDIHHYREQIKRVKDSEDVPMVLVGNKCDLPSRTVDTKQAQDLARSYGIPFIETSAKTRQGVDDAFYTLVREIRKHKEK
How it was run: (§1)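 KRas aa 1-169, biotinylated; Tb-streptavidin donor; 1% DMSO final. Buffer: HEPES 50 mM (pH 7.5), MgCl2 5 mM, DTT 1 mM, Tween-20 0.005%. 60 min, RT. IC50 from 4-parameter fit of POC.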

KRas G12C = biological target: T6, KRas G12C (Homo sapiens, UniProt P01116, G12C); test: as above; settings: 60-minute incubation at room temperature, 1% DMSO, pH 7.5
T6 construct: Biotinylated KRas (corresponding to amino acids 1-169, produced at Accelegan Inc.); biotin (biotinylated); purchased Accelegan Inc
T6 sequence (P01116 1-169 isoform P01116-2 G12C): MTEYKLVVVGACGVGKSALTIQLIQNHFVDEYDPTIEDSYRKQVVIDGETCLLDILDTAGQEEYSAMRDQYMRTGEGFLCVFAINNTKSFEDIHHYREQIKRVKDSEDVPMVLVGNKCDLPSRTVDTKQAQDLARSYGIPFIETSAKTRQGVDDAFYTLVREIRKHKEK
How it was run: as §1

T1 sequence (P01116 1-188 isoform P01116-2 G12C): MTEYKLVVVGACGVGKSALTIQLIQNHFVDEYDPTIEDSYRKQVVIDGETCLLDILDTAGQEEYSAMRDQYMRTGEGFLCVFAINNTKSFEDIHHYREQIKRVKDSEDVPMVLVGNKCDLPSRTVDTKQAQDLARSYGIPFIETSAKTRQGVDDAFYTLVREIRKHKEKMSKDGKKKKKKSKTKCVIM

IC50 [1] [nM] | IC50 [2] [nM] | IC50 [3] [nM] | IC50 (KRas WT) [nM] | IC50 (KRas G12S) [nM] | IC50 (KRas G12C) [nM] | Structure (SMILES)
38 | 29 | 84 | 9 | 4 | 3 | CC(=O)N(C)C(=O)CCCNc1nc(OC[C@@]23CCCN2C[C@H](F)C3)nc2c(F)c(-c3ccc(F)c4sc(N)c(C#N)c34)c(Cl)cc12 [Example 258, N-acetyl-4-((7-(2-amino-3-cyano-7-fluorobenzo[b]thiophen-4-yl)-6-chloro-8-fluoro-2-(((2R,7aS)-2-fluorotetrahydro-1H-pyrrolizin-7a(5H)-yl)methoxy)quinazolin-4-yl)amino)-N-methylbutanamide]
264 | 2740 | 219 | 30 | 68 | 42 | CCc1c(F)ccc2cc(O)cc(-c3ncc4c(N5CCN(C(=O)n6ccc(C)n6)C(CF)C5)nc(OC[C@@]56CCCN5C[C@H](F)C6)nc4c3F)c12 (stereo partly drawn) [Example 123, (4-(7-(8-ethyl-7-fluoro-3-hydroxynaphthalen-1-yl)-8-fluoro-2-(((2R,7aS)-2-fluorotetrahydro-1H-pyrrolizin-7a(5H)-yl)methoxy)pyrido[4,3-d]pyrimidin-4-yl)-2-(fluoromethyl)piperazin-1-yl)(3-methyl-1H-pyrazol-1-yl)methanone]
23 | 785 | 1450 | 246 | 594 | 26 | CCc1c(F)ccc2cc(O)cc(-c3ncc4c(N5CC[C@@H](C(=O)n6ccc(C)n6)[C@@H](C)C5)nc(OC[C@@]56CCCN5C[C@H](F)C6)nc4c3F)c12 [Example 79, ((3R,4R)-1-(7-(8-ethyl-7-fluoro-3-hydroxynaphthalen-1-yl)-8-fluoro-2-(((2R,7aS)-2-fluorotetrahydro-1H-pyrrolizin-7a(5H)-yl)methoxy)pyrido[4,3-d]pyrimidin-4-yl)-3-methylpiperidin-4-yl)(3-methyl-1H-pyrazol-1-yl)methanone]
3330 | 140 | 1860 | 346 | 26 | 17 | Cc1ccn(C(=O)CCCN(C)c2cc(O[C@@H](C)[C@@H]3CCCN3C)nc(-c3cc([C@]4(C)CCCc5sc(N)c(C#N)c54)sn3)n2)n1 [Example 323, (R)-2-amino-4-methyl-4-(3-(4-(methyl (4-(3-methyl-1H-pyrazol-1-yl)-4-oxobutyl)amino)-6-((S)-1-((S)-1-methylpyrrolidin-2-yl)ethoxy)pyrimidin-2-yl)isothiazol-5-yl)-4,5,6,7-tetrahydrobenzo[b]thiophene-3-carbonitrile]
3720 | 109 | 4000 | 63 | 36 | 77 | CCc1c(F)ccc2cc(O)cc(-c3ncc4c(N5CCC(C(=O)n6ccc(C)n6)CC5)nc(OC[C@@]56CCCN5C[C@H](F)C6)nc4c3F)c12 [Example 1, (1-(7-(8-ethyl-7-fluoro-3-hydroxynaphthalen-1-yl)-8-fluoro-2-(((2R,7aS)-2-fluorotetrahydro-1H-pyrrolizin-7a(5H)-yl)methoxy)pyrido[4,3-d]pyrimidin-4-yl)piperidin-4-yl)(3-methyl-1H-pyrazol-1-yl)methanone]
1 | 69 | 4 | 6 | 8 | < 2 | N#Cc1c(N)sc2c(F)ccc(-c3c(Cl)cc4c(N5CCN(C(=O)n6ccnn6)CC5)nc(OC[C@@]56CCCN5C[C@H](F)C6)nc4c3F)c12 [Example 226, 4-(4-(4-(1H-1,2,3-triazole-1-carbonyl)piperazin-1-yl)-6-chloro-8-fluoro-2-(((2R,7aS)-2-fluorotetrahydro-1H-pyrrolizin-7a(5H)-yl)methoxy)quinazolin-7-yl)-2-amino-7-fluorobenzo[b]thiophene-3-carbonitrile]
450 | 62 | 226 | 52 | 4 | 2 | CCc1c(F)ccc2cc(O)cc(-c3ncc4c(N(CCCC(=O)n5ccc(C)n5)C5CC5)nc(OC[C@@]56CCCN5C[C@H](F)C6)nc4c3F)c12 [Example 165, 4-(cyclopropyl(7-(8-ethyl-7-fluoro-3-hydroxynaphthalen-1-yl)-8-fluoro-2-(((2R,7aS)-2-fluorotetrahydro-1H-pyrrolizin-7a(5H)-yl)methoxy)pyrido[4,3-d]pyrimidin-4-yl)amino)-1-(3-methyl-1H-pyrazol-1-yl) butan-1-one]
518 | 23 | 567 | 314 | 15 | 61 | CCc1c(F)ccc2cc(O)cc(-c3ncc4c(N5C[C@@H]6C[C@H](C(=O)n7ccc(C)n7)[C@@H]6C5)nc(OC[C@@]56CCCN5C[C@H](F)C6)nc4c3F)c12 [Example 211, ((1R,5R,6S)-3-(7-(8-ethyl-7-fluoro-3-hydroxynaphthalen-1-yl)-8-fluoro-2-(((2R,7aS)-2-fluorotetrahydro-1H-pyrrolizin-7a(5H)-yl)methoxy)pyrido[4,3-d]pyrimidin-4-yl)-3-azabicyclo[3.2.0]heptan-6-yl)(3-methyl-1H-pyrazol-1-yl)methanone]
373 | 1570 | 251 | 6 | 5 | 4 | CN(CCCC(=O)Nc1cccnc1)c1nc(OC[C@@]23CCCN2C[C@H](F)C3)nc2c(F)c(-c3ccc(F)c4sc(N)c(C#N)c34)c(Cl)cc12 [Example 201, 4-((7-(2-amino-3-cyano-7-fluorobenzo[b]thiophen-4-yl)-6-chloro-8-fluoro-2-(((2R,7aS)-2-fluorotetrahydro-1H-pyrrolizin-7a(5H)-yl)methoxy)quinazolin-4-yl)(methyl)amino)-N-(pyridin-3-yl)butanamide]
2530 | 445 | 671 | 140 | 135 | 204 | CCc1c(F)ccc2cc(O)cc(-c3ncc4c(N5CCC(C(=O)N(C)C(C)=O)CC5)nc(OC[C@@]56CCCN5C[C@H](F)C6)nc4c3F)c12 [Example 155, N-acetyl-1-(7-(8-ethyl-7-fluoro-3-hydroxynaphthalen-1-yl)-8-fluoro-2-(((2R,7aS)-2-fluorotetrahydro-1H-pyrrolizin-7a(5H)-yl)methoxy)pyrido[4,3-d]pyrimidin-4-yl)-N-methylpiperidine-4-carboxamide]
662 | 326 | 287 | 51 | 89 | 65 | CCc1c(F)ccc2cc(O)cc(-c3ncc4c(N5CCC(C(=O)N(C)C(C)=O)C5)nc(OC[C@@]56CCCN5C[C@H](F)C6)nc4c3F)c12 (stereo partly drawn) [Example 274, N-acetyl-1-(7-(8-ethyl-7-fluoro-3-hydroxynaphthalen-1-yl)-8-fluoro-2-(((2R,7aS)-2-fluorotetrahydro-1H-pyrrolizin-7a(5H)-yl)methoxy)pyrido[4,3-d]pyrimidin-4-yl)-N-methylpyrrolidine-3-carboxamide]
45 | 92 | 134 | 10 | 7 | 5 | CN(C(=O)CCCN(C)c1nc(OC[C@@]23CCCN2C[C@H](F)C3)nc2c(F)c(-c3ccc(F)c4sc(N)c(C#N)c34)c(Cl)cc12)C(=O)c1cnn(C)c1 [Example 306, N-(4-((7-(2-amino-3-cyano-7-fluorobenzo[b]thiophen-4-yl)-6-chloro-8-fluoro-2-(((2R,7aS)-2-fluorotetrahydro-1H-pyrrolizin-7a(5H)-yl)methoxy)quinazolin-4-yl)(methyl)amino)butanoyl)-N, 1-dimethyl-1H-pyrazole-4-carboxamide]
5580 | 200 | 8500 | 107 | 66 | 96 | CCc1c(F)ccc2cc(O)cc(-c3ncc4c(N5CCC(C(=O)n6cc(C)cn6)CC5)nc(OC[C@@]56CCCN5C[C@H](F)C6)nc4c3F)c12 [Example 57, (1-(7-(8-ethyl-7-fluoro-3-hydroxynaphthalen-1-yl)-8-fluoro-2-(((2R,7aS)-2-fluorotetrahydro-1H-pyrrolizin-7a(5H)-yl)methoxy)pyrido[4,3-d]pyrimidin-4-yl)piperidin-4-yl)(4-methyl-1H-pyrazol-1-yl)methanone]
198 | 243 | 41 | 8 | 10 | 9 | CCc1c(F)ccc2cc(O)cc(-c3ncc4c(NC[C@@H]5C[C@H]5C(=O)N(C)C(C)=O)nc(OC[C@@]56CCCN5C[C@H](F)C6)nc4c3F)c12 [Example 281, trans-N-acetyl-2-(((7-(8-ethyl-7-fluoro-3-hydroxynaphthalen-1-yl)-8-fluoro-2-(((2R,7aS)-2-fluorotetrahydro-1H-pyrrolizin-7a(5H)-yl)methoxy)pyrido[4,3-d]pyrimidin-4-yl)amino)methyl)-N-methylcyclopropane-1-carboxamide]
